ChEMBL document CHEMBL1667783 (Bioorg Med Chem Lett, 2011)
pIC50: −log10 of the molar value.

Legend:
Assay type in all cases: functional, cell-based
HeLa = assay: Cytotoxicity against human HeLa cells after 48 hrs by MTT assay
HepG2 = assay: Cytotoxicity against human HepG2 cells after 48 hrs by MTT assay; conditions: HepG2, 48 h
SK-OV-3 = assay: Cytotoxicity against human SKOV3 cells after 48 hrs by MTT assay; conditions: SK-OV-3, 48 h
A549 = assay: Cytotoxicity against human A549 cells after 48 hrs by MTT assay; conditions: A549, 48 h
A-431 = assay: Cytotoxicity against human A431 cells after 48 hrs by MTT assay; conditions: A-431, 48 h
MCF7 = assay: Cytotoxicity against human MCF7 cells after 48 hrs by MTT assay; conditions: MCF7, 48 h
HEp-2 = assay: Cytotoxicity against human Hep2 cells after 48 hrs by MTT assay; conditions: HEp-2, 48 h
U-251 = assay: Cytotoxicity against human U251 cells after 48 hrs by MTT assay; conditions: U-251, 48 h

COc1cc(/C=C/C(=O)/C=C(O)/C=C/c2ccc(-n3ccc4ccccc43)c(OC)c2)ccc1-n1ccc2ccccc21
pIC50 (HeLa): < 4.00 | pIC50 (HepG2): < 4.00 | pIC50 (SK-OV-3): < 4.00 | pIC50 (A549): < 4.00 | pIC50 (A-431): < 4.00 | pIC50 (MCF7): < 4.00 | pIC50 (HEp-2): < 4.00

COc1cc(/C=C/C(=O)/C=C(O)/C=C/c2ccc(-n3ccnc3)c(OC)c2)ccc1-n1ccnc1
pIC50 (HeLa): 4.34 | pIC50 (HepG2): 4.08 | pIC50 (SK-OV-3): 4.17 | pIC50 (A549): < 4.00 | pIC50 (A-431): 4.77 | pIC50 (U-251): 4.66 | pIC50 (MCF7): < 4.00 | pIC50 (HEp-2): < 4.00

COc1cc(/C=C/C(=O)/C=C(O)/C=C/c2ccc(-n3cccn3)c(OC)c2)ccc1-n1cccn1
pIC50 (HeLa): < 4.00 | pIC50 (HepG2): < 4.00 | pIC50 (SK-OV-3): < 4.00 | pIC50 (A549): < 4.00 | pIC50 (A-431): < 4.00 | pIC50 (MCF7): < 4.00 | pIC50 (HEp-2): < 4.00

COc1cc(/C=C/C(=O)/C=C(O)/C=C/c2ccc(-n3cnc4ccccc43)c(OC)c2)ccc1-n1cnc2ccccc21
pIC50 (HeLa): < 4.00 | pIC50 (HepG2): < 4.00 | pIC50 (SK-OV-3): < 4.00 | pIC50 (A549): < 4.00 | pIC50 (A-431): < 4.00 | pIC50 (MCF7): < 4.00 | pIC50 (HEp-2): < 4.00

COc1cc(/C=C/C(=O)/C=C(O)/C=C/c2ccc(I)c(OC)c2)ccc1I
pIC50 (HeLa): < 4.00 | pIC50 (HepG2): < 4.00 | pIC50 (SK-OV-3): < 4.00 | pIC50 (A549): < 4.00 | pIC50 (A-431): < 4.00 | pIC50 (U-251): < 4.00 | pIC50 (MCF7): < 4.00 | pIC50 (HEp-2): < 4.00

COc1cc(/C=C/C(=O)/C=C(O)/C=C/c2ccc(Br)c(OC)c2)ccc1Br
pIC50 (HeLa): < 4.00 | pIC50 (HepG2): < 4.00 | pIC50 (SK-OV-3): < 4.00 | pIC50 (A549): < 4.00 | pIC50 (A-431): 4.25 | pIC50 (U-251): 4.07 | pIC50 (MCF7): < 4.00 | pIC50 (HEp-2): < 4.00

COc1cc(/C=C/C(=O)/C=C(O)/C=C/c2ccc(N)c(OC)c2)ccc1N
pIC50 (HeLa): < 4.00 | pIC50 (HepG2): < 4.00 | pIC50 (SK-OV-3): < 4.00 | pIC50 (A549): < 4.00 | pIC50 (A-431): 4.80 | pIC50 (U-251): 4.61 | pIC50 (MCF7): < 4.00 | pIC50 (HEp-2): < 4.00

COc1cc(/C=C/C(=O)/C=C(O)/C=C/c2ccc(NC(C)=O)c(OC)c2)ccc1NC(C)=O
pIC50 (HeLa): 4.43 | pIC50 (HepG2): 4.15 | pIC50 (SK-OV-3): 4.26 | pIC50 (A549): < 4.00 | pIC50 (A-431): 5.14 | pIC50 (U-251): 5.15 | pIC50 (MCF7): < 4.00 | pIC50 (HEp-2): < 4.00

CNc1ccc(/C=C/C(=O)/C=C(O)/C=C/c2ccc(NC)c(OC)c2)cc1OC
pIC50 (HeLa): < 4.00 | pIC50 (HepG2): < 4.00 | pIC50 (SK-OV-3): < 4.00 | pIC50 (A549): < 4.00 | pIC50 (A-431): < 4.00 | pIC50 (U-251): < 4.00 | pIC50 (MCF7): < 4.00 | pIC50 (HEp-2): < 4.00

COc1cc(/C=C/C(=O)/C=C(O)/C=C/c2ccc(C(N)=O)c(OC)c2)ccc1C(N)=O
pIC50 (HeLa): 4.62 | pIC50 (HepG2): 4.36 | pIC50 (SK-OV-3): 4.42 | pIC50 (A549): < 4.00 | pIC50 (A-431): 5.03 | pIC50 (U-251): 5.11 | pIC50 (MCF7): 4.31 | pIC50 (HEp-2): < 4.00

COc1cc(/C=C/C(=O)CC(=O)/C=C/c2ccc(O)c(OC)c2)ccc1O [CURCUMIN]
pIC50 (HeLa): 4.56 | pIC50 (HepG2): 4.50 | pIC50 (SK-OV-3): 4.42 | pIC50 (A549): 4.37 | pIC50 (A-431): 4.86 | pIC50 (U-251): 4.86 | pIC50 (HEp-2): 4.24
